Source: patent US10092517B2, “Gelated microparticle suitable for oral delivery of therapeutic peptides to the lower intestine” (Insucaps Limited, priority 2015, dated 2018)

Test system: isolated rat colonic mucosae
Experiment: TEER and Papp of [14C]-mannitol in isolated rat colonic mucosae mounted in Ussing chambers
Type: in vitro ADME
Method: Ussing Chambers allow the measurement of transport molecules from the apical side of a section of intestinal tissue (rodent) to the basolateral, thereby simulating passage across the gut wall in vivo. […] Their ability to improve intestinal permeability was testing in isolated rat colonic mucosae by measurement of transepithelial electrical resistance (TEER) and permeability of [14C]-mannitol. The permeability of the marker molecule, radioactively labelled sugar ([C14]-Mannitol) was calculated by scintillation counting.
The transepithelial potential difference (PD, mV) is measured in the open circuit configuration after which the tissue is voltage clamped to zero PD by insertion of the required short circuit current (Isc, μA cm^−2) by means of an automatic voltage clamp (EVC-4000 amplifier, WPI, UK).
Isc and PD are alternatively monitored by switching to open circuit conditions for 3 s every 30 s using a timer (Pro-4, WPI, UK). Analogue data was digitised with a Powerlab® data acquisition unit and analyzed with Chart® software package (AD instruments, UK).
Following an equilibration period of 45 min, baseline PD and Isc are measured and TEER (Ω cm^2) is calculated according to Ohm's law.
Transport of radiolabelled mannitol from the apical chamber to the basolateral chamber was used to measure intestinal permeability.
Following addition of [^14C]-mannitol (0.2 μCi) to the apical chamber flux is monitored periodically over two hours by sampling the serosal chamber (100 μL) every 20 minutes for two hours, and apically (100 μL) at time zero, replenishing with fresh KH buffer at each sampling point.
Samples containing [^14C]-mannitol were mixed with scintillation fluid and read in a scintillation analyzer (Packard Tricarb 2900 TR).
The apparent permeability coefficient (Papp) for mannitol and FD4 is calculated according to the equation; Papp (cm/s)=(dQ/dt) (1/AC0), where dQ/dt is the transport rate (mol/s); A is the surface area of the monolayer (cm^2), and C0 is the initial concentration in the donor compartment (mol/mL).

enhancement of mannitol flux (25 mg Vitamin B12 in encapsulation systems) [fold]	Molecule	TEER (10, 25 and 50 mg of TCA added to the encapsulation system)	TEER (Vitamin B12 in encapsulation systems, over 2 hours)
–	C[C@H](CCC(=O)NCCS(=O)(=O)O)[C@H]1CC[C@H]2[C@@H]3[C@H](O)C[C@@H]4C[C@H](O)CC[C@]4(C)[C@H]3C[C@H](O)[C@]12C [TCA, taurocholic acid]	reduced TEER	–
11.5	cyanocobalamin [Vitamin B12]	–	significantly reduced TEER
